≈ marks a conversion by molar mass, not a printed value. Like-named read-outs stand apart in the source and are kept apart here. Where a SMILES comes first, the peptide text is derived from it.
What was measured:
[1] = system: DBI001; assay: Biolog phenotype MicroArrays: components enhancing function (efficacy) against fungal or bacterial pathogens; assay type: cell-based; details: enhancing function of human-derived Janthinobacterium lividum
[2] = system: DB02378; assay: Antibiotic MIC tests; assay type: cell-based, Janthinobacterium lividum; details: strain DB02378
Procedure: (§1) The antibiotic resistance profile and MICs tests were performed using Janthinobacterium lividum grown from cultures purified and grown in vegitone LB broth.

[3] = system: DB02473; assay: Antibiotic MIC tests; assay type: cell-based, Janthinobacterium lividum; details: strain DB02473
Procedure: as §1

[4] = system: DB00118; assay: Antibiotic MIC tests; assay type: cell-based, Janthinobacterium lividum; details: strain DB00118
Procedure: as §1

[5] = system: DB00121; assay: Antibiotic MIC tests; assay type: cell-based, Janthinobacterium lividum; details: strain DB00121
Procedure: as §1

[6] = system: E. Coli ATCC25922; assay: Antibiotic MIC tests; assay type: cell-based; details: Escherichia coli
[7] = Janthinobacterium lividum, read-out: MIC

Molecule	Concentration Range of Efficacy [1]	also measured
CC(O)C(N)=O (racemic) [D,L-Lactamide]	0.1 to 1 mM	
O=P(O)(O)OCC(O)CO (racemic) [D,L-α-Glycerol Phosphate]	2 to 20 mM	
CC(O)CO (stereo not drawn) [1,2-Propanediol]	2 to 20 mM	
Nc1ncnc2c1ncn2C1CC(O)C(CO)O1 (stereo not drawn) [2-Deoxy Adenosine]	2 to 20 mM	
O=CC[C@H](O)[C@H](O)CO [2-Deoxy-DRibose]	1 to 5 mM	
O=C[C@@H](O)[C@H](O[C@@H]1O[C@H](CO)[C@H](O)[C@H](O)[C@H]1O)[C@H](O)CO [3-0-β-D-Galactopyranosyl-D Arabinose]	1 to 5 mM	
C[C@H](N)C(=O)N[C@@H](CCC(=O)O)C(=O)O [Ala-Glu] (H-Ala-Glu-OH)	0.1 to 1 mM	
CC[C@H]1OC(=O)[C@H](C)[C@@H](O[C@H]2C[C@@](C)(OC)[C@@H](O)[C@H](C)O2)[C@H](C)[C@@H](O[C@@H]2O[C@H](C)C[C@H](N(C)C)[C@H]2O)[C@](C)(O)C[C@@H](C)CN(C)[C@H](C)[C@@H](O)[C@]1(C)O [Azithromycin]		MIC [2, 7]: 2 µg/mL (≈ 2.67 µM); MIC [3, 7]: 1 µg/mL (≈ 1.34 µM); MIC [4, 7]: 8 µg/mL (≈ 10.7 µM); MIC [5, 7]: 0.5 µg/mL (≈ 0.668 µM); MIC [6]: 8 µg/mL (≈ 10.7 µM)
CO/N=C(\C(=O)N[C@@H]1C(=O)N2C(C(=O)[O-])=C(C[N+]3(C)CCCC3)CS[C@H]12)c1csc(N)n1 [Cefepime]		MIC [4, 7]: 0.25 µg/mL (≈ 0.52 µM); MIC [6]: < 0.063 µg/mL
CO/N=C(\C(=O)N[C@@H]1C(=O)N2C(C(=O)O)=C(CSc3nc(=O)c(=O)[nH]n3C)CS[C@H]12)c1csc(N)n1 [Ceftriaxone]		MIC [2, 7]: 0.25 µg/mL (≈ 0.451 µM); MIC [3, 7]: 0.5 µg/mL (≈ 0.902 µM); MIC [4, 7]: 0.5 µg/mL (≈ 0.902 µM); MIC [5, 7]: 0.25 µg/mL (≈ 0.451 µM); MIC [6]: < 0.063 µg/mL
CCC[C@@H]1C[C@@H](C(=O)N[C@@H]([C@H]2O[C@H](SC)[C@H](O)[C@@H](O)[C@H]2O)[C@H](C)Cl)N(C)C1 [Clindamycin]		MIC [2, 7]: 32 µg/mL (≈ 75.3 µM); MIC [3, 7]: 16 µg/mL (≈ 37.6 µM); MIC [4, 7]: 32 µg/mL (≈ 75.3 µM); MIC [5, 7]: 16 µg/mL (≈ 37.6 µM); MIC [6]: < 64 µg/mL
OC[C@@H](O)C(O)[C@H](O)CO [D-Arabitol]	1 to 5 mM	
OC[C@H]1O[C@@H](O[C@H]2[C@H](O)[C@@H](O)[C@H](O)O[C@@H]2CO)[C@H](O)[C@@H](O)[C@@H]1O [D-Cellobiose]	2 to 20 mM	
O=C(CO)[C@@H](O)[C@H](O)[C@H](O)CO [D-Fractose]	2 to 20 mM	
O=C(O)[C@H]1OC(O)[C@H](O)[C@@H](O)[C@@H]1O (stereo partly drawn) [D-Glucoronic Acid]	2 to 20 mM	
N[C@@H](C(=O)O)[C@@H](O)[C@H](O)[C@H](O)CO [D-Glucosaminic Acid]	2 to 20 mM	
O=P(O)(O)O[C@H]1O[C@H](CO)[C@@H](O)[C@H](O)[C@H]1O [D-Glucose-1-Phosphate]	2 to 20 mM	
OC[C@H]1O[C@@](CO)(O[C@H]2O[C@H](CO)[C@@H](O)[C@H](O)[C@H]2O)[C@@H](O[C@H]2O[C@H](CO)[C@@H](O)[C@H](O)[C@H]2O)[C@@H]1O [D-Melezitose]	1 to 5 mM	
OC[C@H]1O[C@H](OCC2O[C@@H](O)[C@H](O)[C@@H](O)[C@@H]2O)[C@H](O)[C@@H](O)[C@H]1O (stereo partly drawn) [D-Melibiose]	2 to 20 mM	
O=C(O)[C@@H](O)[C@H](O)C(=O)O [D-Tartaric acid]	1 to 5 mM	
OC[C@@H](O)[C@H](O)[C@H](O)[C@@H](O)CO [Dulcitol]	2 to 20 mM	
OC[C@H](O)C(O)[C@@H](O)CO [L-Arabitol]	1 to 5 mM	
C[C@H]1COc2c(N3CCN(C)CC3)c(F)cc3c(=O)c(C(=O)O)cn1c23 [Levofloxacin]		MIC [2, 7]: 0.25 µg/mL (≈ 0.692 µM); MIC [3, 7]: 0.25 µg/mL (≈ 0.692 µM); MIC [4, 7]: 0.25 µg/mL (≈ 0.692 µM); MIC [6]: 0.063 µg/mL (≈ 0.174 µM)
OC[C@@H](O)[C@@H](O[C@H]1O[C@H](CO)[C@@H](O)[C@H](O)[C@H]1O)[C@H](O)[C@@H](O)CO [Maltitol]	1 to 5 mM	
CN(C)c1ccc(O)c2c1C[C@H]1C[C@H]3[C@H](N(C)C)C(O)=C(C(N)=O)C(=O)[C@@]3(O)C(O)=C1C2=O [Minocycline]		MIC [3, 7]: 0.25 µg/mL (≈ 0.546 µM); MIC [5, 7]: < 0.063 µg/mL; MIC [6]: 0.25 µg/mL (≈ 0.546 µM)
O=[N+]([O-])O [Nitrate]	0.1 to 1 mM	
O=NO [Nitrite]	0.1 to 1 mM	

Molecule	Concentration Range of Efficacy [1]	also measured
OC[C@H]1O[C@H](OC[C@H]2OC(O)(CO)[C@@H](O)[C@@H]2O)[C@H](O)[C@@H](O)[C@@H]1O (stereo partly drawn) [Palatinose]	1 to 5 mM	
OC[C@@]12OC[C@@H](O1)[C@@H](O)[C@@H](O)[C@@H]2O [Sedoheptulosan]	1 to 5 mM	
OC[C@H]1O[C@H](OC[C@H]2O[C@H](OC[C@H]3O[C@H](O[C@]4(CO)O[C@H](CO)[C@@H](O)[C@@H]4O)[C@H](O)[C@@H](O)[C@@H]3O)[C@H](O)[C@@H](O)[C@H]2O)[C@H](O)[C@@H](O)[C@H]1O [Stachyose]	1 to 5 mM	
O=C(CO)[C@@H](O[C@H]1O[C@H](CO)[C@@H](O)[C@H](O)[C@H]1O)[C@H](O)[C@H](O)CO [Turanose]	1 to 5 mM	
NC(N)=O [Urea]	0.1 to 1 mM	
OC[C@H]1O[C@@H]2O[C@H]3[C@H](O)[C@@H](O)[C@@H](O[C@H]4[C@H](O)[C@@H](O)[C@@H](O[C@H]5[C@H](O)[C@@H](O)[C@@H](O[C@H]6[C@H](O)[C@@H](O)[C@@H](O[C@H]7[C@H](O)[C@@H](O)[C@@H](O[C@H]8[C@H](O)[C@@H](O)[C@@H](O[C@H]9[C@H](O)[C@@H](O)[C@@H](O[C@H]1[C@H](O)[C@H]2O)O[C@@H]9CO)O[C@@H]8CO)O[C@@H]7CO)O[C@@H]6CO)O[C@@H]5CO)O[C@@H]4CO)O[C@@H]3CO [g-Cyclodextrin]	1 to 5 mM	
OC[C@@H](O)[C@@H](O)CO [i-Erythritol]	1 to 5 mM	
OC[C@H]1O[C@@H]2O[C@H]3[C@H](O)[C@@H](O)[C@@H](O[C@H]4[C@H](O)[C@@H](O)[C@@H](O[C@H]5[C@H](O)[C@@H](O)[C@@H](O[C@H]6[C@H](O)[C@@H](O)[C@@H](O[C@H]7[C@H](O)[C@@H](O)[C@@H](O[C@H]1[C@H](O)[C@H]2O)O[C@@H]7CO)O[C@@H]6CO)O[C@@H]5CO)O[C@@H]4CO)O[C@@H]3CO [α-Cyclodextrin]	1 to 5 mM	
O=C1CCC(C(=O)O)O1 (stereo not drawn) [α-Hydroxy Glutaric Acid-g-Lactone]	2 to 20 mM	
COC1OC(CO)C(O)C(O)C1O [α-Methyl-D-Galactoside]	2 to 20 mM	
CO[C@H]1O[C@H](CO)[C@@H](O)[C@H](O)[C@H]1O [α-Methyl-D-Glucoside]	1 to 5 mM	
COC1OC(CO)C(O)C(O)C1O [α-Methyl-D-Mannoside]	1 to 5 mM	
OC[C@H]1O[C@@H]2O[C@H]3[C@H](O)[C@@H](O)[C@@H](O[C@H]4[C@H](O)[C@@H](O)[C@@H](O[C@H]5[C@H](O)[C@@H](O)[C@@H](O[C@H]6[C@H](O)[C@@H](O)[C@@H](O[C@H]7[C@H](O)[C@@H](O)[C@@H](O[C@H]8[C@H](O)[C@@H](O)[C@@H](O[C@H]1[C@H](O)[C@H]2O)O[C@@H]8CO)O[C@@H]7CO)O[C@@H]6CO)O[C@@H]5CO)O[C@@H]4CO)O[C@@H]3CO [β-Cyclodextrin]	1 to 5 mM	
CO[C@@H]1O[C@H](CO)[C@@H](O)[C@H](O)[C@H]1O [β-Methyl-D-Galactoside]	1 to 5 mM	
CO[C@@H]1O[C@H](CO)[C@@H](O)[C@H](O)[C@H]1O [β-Methyl-D-Glucoside]	2 to 20 mM	
CO[C@@H]1O[C@H](C(=O)O)[C@@H](O)[C@H](O)[C@H]1O [β-Methyl-D-Glucuronic Acid]	1 to 5 mM	
COC1OCC(O)C(O)C1O [β-Methyl-D-Xyloside]	1 to 5 mM	
Chondroitin Sulfate C	1 to 5 mM	
Glycogen	1 to 5 mM	
Inulin	1 to 5 mM	
Laminarin	1 to 5 mM	
Maltotriose	2 to 20 mM	
Mannan	1 to 5 mM	
Neomycin		MIC [2]: 2 µg/mL; MIC [3]: 2 µg/mL; MIC [4]: 2 µg/mL; MIC [5]: 1 µg/mL
Pectin	1 to 5 mM	
Tween 40	2 to 20 mM	
dextrin	1 to 5 mM	

— patent publication US12064459B2, “Compositions and methods for improving skin health and for the treatment and prevention of diseases, disorders and conditions associated with pathogenic microbes” (priority 2019, dated 2024)
